Read-outs that look alike come from different tables or passages of the source.
Experiments:
Alternaria solani = test: Alternaria test (tomato)/protective; format: in vivo; conditions: 72 h, 100 ppm active substance, protective, evaluation 3 days after inoculation, read-out: degree of effectiveness
Experimental: • Solvents: 24.5 parts by weight of acetone • 24.5 parts by weight of dimethylacetamide • Emulsifier: 1 part by weight of alkylaryl polyglycol ether (polyoxyethylene (16) tristearylphenyl ether)
To prepare a suitable active substance composition, 1 part by weight of active substance is mixed with the given amounts of solvents and emulsifier and the concentrate is diluted to the desired concentration using water.
For the testing of protective effectiveness, young plants are sprayed with the active substance composition in the application rate given. After the spray coating has been dried on, the plants are inoculated with an aqueous suspension of spores of Alternaria solani. The plants are then placed in an incubation chamber at approximately 20° C. and 100% relative humidity.
Evaluation is carried out 3 days after the inoculation. In this connection, 0% means a degree of effectiveness corresponding to that of the control, while a degree of effectiveness of 100% means that no infestation is observed.

Uromyces appendiculatus = test: Uromyces test (beans)/protective; format: in vivo; conditions: 240 h, 100 ppm active substance, protective, evaluation 10 days after inoculation, read-out: degree of effectiveness
Summary of the method: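 Young bean plants were sprayed with compound (acetone/dimethylacetamide/emulsifier concentrate diluted in water), dried, then inoculated with U. appendiculatus spores. They were held 1 day at ~20 °C, 100% RH, then kept in a greenhouse at ~21 °C, ~90% RH. Efficacy was scored at 10 days post-inoculation (0% = control, 100% = no infestation).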

Sphaerotheca fuliginea = test: Sphaerotheca test (cucumber)/protective; format: in vivo; conditions: Podosphaera fuliginea, 168 h, 500 ppm active substance, protective, evaluation 7 days after inoculation, read-out: degree of effectiveness
Summary of the method: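 Young cucumber plants sprayed at the stated rate with active substance in DMF/alkylaryl polyglycol ether emulsifier diluted in water, then inoculated with Sphaerotheca fuliginea spores one day later. Kept in greenhouse at 70% relative humidity, 23° C.; scored 7 days post-inoculation as % efficacy (0% = untreated control, 100% = no infestation).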

Puccinia triticina = Puccinia triticina test (wheat)/protective; format: in vivo; conditions: 192 h, 500 ppm active substance, protective, evaluation 8 days after inoculation, read-out: degree of effectiveness
Summary of the method: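 Protective test: young wheat plants sprayed with compound (in N,N-dimethylacetamide/emulsifier, diluted in water) at the stated rate, dried, then inoculated with Puccinia triticina spores; 48 h at 20 °C, 100% RH, then greenhouse ~20 °C, ~80% RH. Efficacy scored 8 days post-inoculation, 0% = untreated control, 100% = no infestation.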

Septoria tritici = Septoria tritici test (wheat)/protective; format: in vivo; conditions: Zymoseptoria tritici, 504 h, 500 ppm active substance, protective, evaluation 21 days after inoculation, read-out: degree of effectiveness
Summary of the method: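 Young wheat plants sprayed with compound in dimethylacetamide/emulsifier-water, then inoculated with S. tritici spores once dry. Kept 48 h at 20 °C/100% RH, 60 h at 15 °C/100% RH, then greenhouse ~15 °C/80% RH. Scored 21 days post-inoculation as % efficacy versus untreated control.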

Phakopsora pachyrhizi = test: Phakopsora test (soybean)/protective; format: in vivo; conditions: 264 h, 500 ppm active substance, protective, evaluation 11 days after inoculation, read-out: degree of effectiveness
Experimental: • Solvent: 28.5 parts by weight of acetone • Emulsifier: 1.5 parts by weight of polyoxyethylene alkylphenyl ether (polyoxy-ethylene (16) tristearylphenyl ether)
To prepare a suitable active substance composition, 1 part by weight of active substance is mixed with the given amounts of solvent and emulsifier and the concentrate is diluted to the desired concentration using water.
For the testing of protective effectiveness, young plants are sprayed with the active substance composition at the application rate given. One day after the spraying, the plants are sprayed with an aqueous suspension of spores of Phakopsora pachyrhizi. The plants remain in a greenhouse at 20° C. and 80% relative humidity.
Evaluation is carried out 11 days after the inoculation. In this connection, 0% means a degree of effectiveness corresponding to that of the control, while a degree of effectiveness of 100% means that no infestation is observed.

[1] = log P by HPLC on reversed-phase columns (C 18), EEC Directive 79/831 Annex V.A8; format: physicochemical; conditions: reversed-phase C18 HPLC column
[2] = pH 2.3, [a] HPLC, acid region pH 2.3, 0.1% aqueous phosphoric acid and acetonitrile, read-out: log p
[3] = pH 2.3, pH 2.3, given in synthesis examples, read-out: log P (pH2.3)

Row | Structure (SMILES) | pest or weed control at 100 ppm (Alternaria solani) [%] | pest or weed control at 100 ppm (Uromyces appendiculatus) [%] | pest or weed control at 500 ppm (Sphaerotheca fuliginea) [%] | pest or weed control at 500 ppm (Puccinia triticina) [%] | pest or weed control at 500 ppm (Septoria tritici) [%] | pest or weed control at 500 ppm (Phakopsora pachyrhizi) [%] | chromatographic logP [1, 2] | chromatographic logP [1, 3]
1 | CCN(C)C=Nc1cc(C)c(Oc2nc(Cc3ccc(Cl)cc3)ns2)cc1C [Example 1, N′-(4-{[3-(4-chlorobenzyl)-1,2,4-thiadiazol-5-yl]oxy}-2,5-dimethylphenyl)-N-ethyl-N-methylimidoformamide] | ≥ 70 | ≥ 70 | ≥ 70 | ≥ 70 | ≥ 70 | ≥ 80 |  | 
2 | Cc1cc(Oc2nc(Cc3ccc(Cl)cc3)ns2)c(C)cc1N=CN1CCCCC1 [Example 2, 4-{[3-(4-chlorobenzyl)-1,2,4-thiadiazol-5-yl]oxy}-2,5-dimethyl-N-(piperidin-1-ylmethylidene)aniline] | ≥ 70 | ≥ 70 | ≥ 70 | ≥ 70 | ≥ 70 | ≥ 80 | 2.09 | 
3 | CCN(C)C=Nc1cc(Cl)c(Oc2nc(Cc3ccc(Cl)cc3)ns2)cc1C [Example 3, N′-(5-chloro-4-{[3-(4-chlorobenzyl)-1,2,4-thiadiazol-5-yl]oxy}-2-methylphenyl)-N-ethyl-N-methylimidoformamide] | ≥ 70 | ≥ 70 | ≥ 70 | ≥ 70 | ≥ 70 | ≥ 80 |  | 
4 | CCN(C)C=Nc1cc(C)c(Oc2nc(Cc3ccc(Cl)cc3Cl)ns2)cc1C [Example 11, N′-(4-{[3-(2,4-dichlorobenzyl)-1,2,4-thiadiazol-5-yl]oxy}-2,5-dimethylphenyl)-N-ethyl-N-methylimidoformamide] | ≥ 70 | ≥ 70 | ≥ 70 | ≥ 70 | ≥ 70 | ≥ 80 | 2.19 | 
5 | CCN(C)C=Nc1cc(C)c(Oc2nc(C(C)c3ccc(Cl)cc3)ns2)cc1C (stereo not shown) [Example 17, N′-[4-({3-[1-(4-chlorophenyl)ethyl]-1,2,4-thiadiazol-5-yl}oxy)-2,5-dimethylphenyl]-N-ethyl-N-methylimidoformamide] | ≥ 70 | ≥ 70 | ≥ 70 | ≥ 70 | ≥ 70 | ≥ 80 | 2.34 | 
6 | CCN(C)C=Nc1cc(C)c(Oc2nc(Cc3ccc(C)cc3[N+](=O)[O-])ns2)cc1C [Example 24, N′-(2,5-dimethyl-4-{[3-(4-methyl-2-nitrobenzyl)-1,2,4-thiadiazol-5-yl]oxy}phenyl)-N-ethyl-N-methylimidoformamide] | ≥ 70 | ≥ 70 | ≥ 70 | ≥ 70 | ≥ 70 | ≥ 80 | 1.89 | 
7 | CCN(C)C=Nc1cc(C)c(Oc2nc(C(C)(C)c3ccc(Cl)cc3)ns2)cc1C [Example 25, N′-[4-({3-[2-(4-chlorophenyl)propan-2-yl]-1,2,4-thiadiazol-5-yl}oxy)-2,5-dimethylphenyl]-N-ethyl-N-methylimidoformamide] | ≥ 70 | ≥ 70 | ≥ 70 | ≥ 70 | ≥ 70 | ≥ 80 | 2.55 | 
8 | CCN(C)C=Nc1cc(C)c(Oc2nc(Cc3ccc(Br)cc3)ns2)cc1C [Example 31, N′-(4-{[3-(4-bromobenzyl)-1,2,4-thiadiazol-5-yl]oxy}-2,5-dimethylphenyl)-N-ethyl-N-methylimidoformamide] | ≥ 70 | ≥ 70 | ≥ 70 | ≥ 70 | ≥ 70 | ≥ 80 | 2.07 | 
9 | Cc1cc(Oc2nc(Cc3ccc(Br)cc3)ns2)c(C)cc1N=CN(C)C(C)C [Example 32, N′-(4-{[3-(4-bromobenzyl)-1,2,4-thiadiazol-5-yl]oxy}-2,5-dimethylphenyl)-N-methyl-N-(propan-2-yl)imidoformamide] | ≥ 70 | ≥ 70 | ≥ 70 | ≥ 70 | ≥ 70 | ≥ 80 |  | 
10 | CCN(C)C=Nc1cc(C)c(Oc2nc(Cc3cccc(Cl)c3)ns2)cc1C [Example 35, N′-(4-{[3-(3-chlorobenzyl)-1,2,4-thiadiazol-5-yl]oxy}-2,5-dimethylphenyl)-N-ethyl-N-methylimidoformamide] | ≥ 70 | ≥ 70 | ≥ 70 | ≥ 70 | ≥ 70 | ≥ 80 | 2.31 | 2.31
11 | CCN(C)C=Nc1cc(C)c(Oc2nc(C3(c4ccc(Cl)cc4)CC3)ns2)cc1C [Example 37, N′-[4-({3-[1-(4-chlorophenyl)cyclopropyl]-1,2,4-thiadiazol-5-yl}oxy)-2,5-dimethylphenyl]-N-ethyl-N-methylimidoformamide] | ≥ 70 | ≥ 70 | ≥ 70 | ≥ 70 | ≥ 70 | ≥ 80 | 2.21 | 2.28
12 | CCN(C)C=Nc1cc(Cl)c(Oc2nc(C3(c4ccc(Cl)cc4)CC3)ns2)cc1C [Example 40, N′-[5-chloro-4-({3-[1-(4-chlorophenyl)cyclopropyl]-1,2,4-thiadiazol-5-yl}oxy)-2-methylphenyl]-N-ethyl-N-methylimidoformamide] | ≥ 70 | ≥ 70 | ≥ 70 | ≥ 70 | ≥ 70 | ≥ 80 | 2.55 | 
13 | CCN(C)C=Nc1cc(C)c(Oc2nc(Cc3ccccc3OC)ns2)cc1C [Example 49, N-ethyl-N′-(4-{[3-(2-methoxybenzyl)-1,2,4-thiadiazol-5-yl]oxy}-2,5-dimethylphenyl)-N-methylimidoformamide] | ≥ 70 | ≥ 70 | ≥ 70 | ≥ 70 | ≥ 70 | ≥ 80 | 1.83 | 
14 | CCN(C)C=Nc1cc(C)c(Oc2nc(Cc3ccc(F)cc3F)ns2)cc1C [Example 52, N′-(4-{[3-(2,4-difluorobenzyl)-1,2,4-thiadiazol-5-yl]oxy}-2,5-dimethylphenyl)-N-ethyl-N-methylimidoformamide] | ≥ 70 | ≥ 70 | ≥ 70 | ≥ 70 | ≥ 70 | ≥ 80 | 1.94 | 

Source: patent US8383139B2 (Bayer CropScience AG, priority 2008, dated 2013)
